Source: publication PMC10333884, “Large‐scale phosphomimetic screening identifies phospho‐modulated motif‐based protein interactions” (Molecular Systems Biology, 2023)
Residues, ends and D or L forms follow the SMILES beside them.

Assays:
[1] = molecular target: T1, KPNA4 ARM Major (Homo sapiens, UniProt O00629); assay: FP displacement assay, KPNA4 ARM major pocket; format: binding; settings: for Kd: major pocket probe FITC-MYC 5 nM, 50 mM sodium phosphate pH 7.4, room temperature, at least three technical replicates, read-out: KD values ± SEM
T1 construct: 60-487; GST (cleaved yes); made in house; host or cells: Escherichia coli BL21-Gold(DE3)
Description: (§1) FP experiments were performed as described previously (Kliche et al, [2021]). Shortly, in order to monitor the binding event, FITC‐labelled peptides were used (excitation 495 nm, emission: 535 nm) and the FP signal was recorded in mP on a SpectraMax iD5 Multi‐Mode Microplate Reader (Molecular Devices) by measuring the emitted light in two angels. The measurements were performed at room temperature and prepared in nonbinding black half area 96‐well microplates (Corning®; 50 μl/well). For measuring direct binding, that is saturation curves, a 1:1 dilution series of protein domain (25 μl/well) was generated in 50 mM sodium phosphate buffer pH 7.4 and the measurement performed with 5 nM FITC‐labelled peptide (25 μl/well). The buffer‐corrected values were subsequently plotted with PRISM and fitted to the quadratic equation (Gianni et al, [2005]).
(§2) The 1:1 dilution series in this experiment was performed with the unlabelled peptide in 50 mM sodium phosphate buffer pH 7.4, so that each well‐contained unlabelled peptide (25 μl) at a certain concentration and pre‐formed complex (25 μl). The KD values of this indirectly monitored binding event were calculated as described previously (Nikolovska‐Coleska et al, [2004]). All measurements were at least in technical triplicates as well as biological duplicates when indicated. An amplitude shift between repeat measurements in the displacement experiments was occasionally observed due to variations in the protein preparations. If that was the case, the “active” protein concentration was back‐calculated according to the quadratic equation from the saturation curves performed in parallel. By comparing the active protein concentrations in the complex between different protein preparations, the amplitude was normalised.

[2] = system: KPNA4 ARM; assay: Phosphomimetic ProP-PD selection, KPNA4 ARM; format: binding, human; settings: phosphomimetic enrichment score of the wild-type/phosphomimetic (E) pair at the phosphosite, PM_HD2 phage selection; same score in the major and minor pocket; P-value in brackets not taken
[3] = molecular target: T2, KPNA4 ARM minor (Homo sapiens, UniProt O00629); assay: FP displacement assay, KPNA4 ARM minor pocket; format: binding; settings: for Kd: minor pocket probe FITC-NCOR2 5 nM, 50 mM sodium phosphate pH 7.4, room temperature, at least three technical replicates, read-out: KD values ± SEM
T2 construct: 60-487; GST (cleaved yes); made in house; host or cells: Escherichia coli BL21-Gold(DE3)
Description: as §1, §2

[4] = molecular target: T3, GGA1 VHS (Homo sapiens, UniProt Q9UJY5); assay: FP displacement assay, GGA1 VHS; format: binding; settings: FP displacement, probe FITC-IGF2R 5 nM, 50 mM sodium phosphate pH 7.4, room temperature; at least three technical replicates; read-out: KD values ± SEM
T3 construct: GGA1_VHS__Q9UJY5_1_157; GST (cleaved yes); made in house; host or cells: Escherichia coli BL21-Gold(DE3)
T3 sequence (Q9UJY5 1-157): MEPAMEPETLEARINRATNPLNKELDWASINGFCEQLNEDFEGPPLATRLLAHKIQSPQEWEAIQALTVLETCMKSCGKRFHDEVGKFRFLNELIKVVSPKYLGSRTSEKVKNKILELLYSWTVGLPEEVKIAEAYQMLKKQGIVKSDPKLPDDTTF
Description: as §1, §2

[5] = molecular target: T3, GGA1 VHS; assay: Phosphomimetic ProP-PD selection, GGA1 VHS; settings: phosphomimetic enrichment score of the wild-type/phosphomimetic (E) pair at the phosphosite, PM_HD2 phage selection; positive = phosphomimetic enhances binding; P-value in brackets not taken
Description: Selections using the PM_HD2 phage library were performed as described previously with minor modification to the original protocol. The corresponding tag protein (either GST or MBP) was first used during negative selections. Selections were run for 4 days. • Bait and tag proteins (10–15 μg in 100 μl PBS) were immobilised in 96‐well MaxiSorb plate (NUNC) o.n. at 4°C. • Escherichia coli OmniMax bacteria were grown in 2YT medium supplemented with tetracycline (100 μg/ml) at 37°C and 200 rpm. • Plates with immobilised bait/tag proteins were blocked with 0.5% BSA in PBS for 1 h at 4°C. • Phage library (10 μl/well) was prepared by diluting 10× with PBS and adding one‐fourth of the volume of PEG/NaCl. For phage precipitation, prepared library was incubated for 10 min on ice followed by centrifugation for 10 min at 10,000 × g at 4°C. […]
Based on the results from phage pool ELISAs, samples from selection Day 3 and 4 were selected for NGS, as described previously (Benz et al, [2022]). • Peptide coding regions were amplified and dual‐barcoded by PCR. […] From the columns, samples were eluted with 30 μl TE (10 mM Tris–HCl, 1 mM EDTA. pH 7.5) buffer and quantified with Quant‐iT PicoGreen dsDNA Assay Kit. • Samples were sequenced on MiSeq (MSC 2.5.0.5/RTA 1.18.54) with a 151 nt (Read1) setup using “Version3” chemistry. […]

[6] = molecular target: T3, GGA1 VHS; assay: ITC, GGA1 VHS; format: binding; design: Ka: unit not given beside the values

T2 sequence (O00629 60-487): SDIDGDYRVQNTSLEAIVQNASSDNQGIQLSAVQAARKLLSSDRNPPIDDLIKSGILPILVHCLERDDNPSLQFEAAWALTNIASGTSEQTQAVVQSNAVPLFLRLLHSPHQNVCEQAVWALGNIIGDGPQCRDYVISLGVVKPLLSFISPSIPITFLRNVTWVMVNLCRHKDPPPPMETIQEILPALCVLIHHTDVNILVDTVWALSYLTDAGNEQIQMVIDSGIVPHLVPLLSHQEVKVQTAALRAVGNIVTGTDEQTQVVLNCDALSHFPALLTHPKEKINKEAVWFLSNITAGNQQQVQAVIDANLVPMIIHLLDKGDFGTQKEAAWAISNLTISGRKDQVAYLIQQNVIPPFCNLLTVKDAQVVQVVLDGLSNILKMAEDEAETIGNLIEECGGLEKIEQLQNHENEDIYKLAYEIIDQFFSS
T1 sequence (O00629 60-487): as above

Row | SMILES | Kd [1] [µM] | PES [2] | Kd [3] [µM] | Kd [4] [µM] | PES [5] | further results
1 | CC(=O)N[C@@H](CC(N)=O)C(=O)N[C@@H](Cc1ccc(O)cc1)C(=O)N[C@@H](C)C(=O)N1CCC[C@H]1C(=O)N1CCC[C@H]1C(=O)N[C@H](C(=O)N[C@@H](CCCCN)C(=O)N[C@@H](CCCNC(=N)N)C(=O)N[C@@H](CCC(=O)O)C(=O)N[C@@H](CCCNC(=N)N)C(=O)N[C@@H](CCC(=O)O)C(=O)N[C@@H](CO)C(=O)N[C@@H](CO)C(=O)N[C@@H](CC(C)C)C(=O)N[C@H](C(=O)N[C@@H](CCC(N)=O)C(N)=O)[C@@H](C)O)C(C)C [RANBP3_114–129 E (p + 5)] (Ac-NYAPPVKRERESSLTQ-NH2) | 0.8 ± 0.03 | −7 (0.00012) | 61 ± 2 |  |  | IC50 ([1]; Fig 3E, KPNA4 ARM major, technical triplicates, read-out: IC50 values of displacement curves, with SEM): 7.1 ± 0.5 µM; IC50 ([3]; Fig 3E, KPNA4 ARM minor, technical triplicates, read-out: IC50 values of displacement curves, with SEM): 290 ± 16 µM
2 | CC(=O)N[C@@H](CC(=O)O)C(=O)N[C@@H](CC(C)C)C(=O)N[C@@H](CC(C)C)C(=O)N[C@@H](CCC(=O)O)C(=O)N[C@@H](CO)C(=O)N1CCC[C@H]1C(=O)N[C@@H](CC(=O)O)C(=O)N[C@H](C(=O)NCC(=O)N[C@@H](CC(C)C)C(=O)N[C@@H](CC(C)C)C(=O)N[C@@H](CCCCN)C(=O)N[C@@H](CC(C)C)C(=O)N[C@@H](C)C(=O)N[C@@H](CO)C(=O)N[C@@H](Cc1ccc(O)cc1)C(N)=O)C(C)C [JUN59–73 E] (Ac-DLLESPDVGLLKLASY-NH2) |  |  |  | 450 ± 50 | 3.6 (0.023) | 
3 | CC(=O)N[C@@H](CCC(=O)O)C(=O)N[C@H](C(=O)N[C@@H](Cc1ccc(O)cc1)C(=O)N[C@@H](Cc1ccc(O)cc1)C(=O)N[C@@H](CC(C)C)C(=O)N[C@@H](CO)C(=O)N[C@@H](CC(=O)O)C(=O)N[C@@H](CCC(=O)O)C(=O)N1CCC[C@H]1C(=O)N[C@@H](CC(C)C)C(=O)N[C@@H](CC(C)C)C(=O)NCC(=O)N1CCC[C@H]1C(=O)N1CCC[C@H]1C(=O)N[C@H](C(=O)NCC(N)=O)C(C)C)[C@@H](C)O [GTSE1_145–160 E] (Ac-ETYYLSDEPLLGPPVG-NH2) |  |  |  | 199 ± 4 | 9 (0.00012) | 
4 | CC[C@H](C)[C@H](NC(=O)[C@H](CC(=O)O)NC(=O)[C@H](CC(=O)O)NC(=O)[C@H](CO)NC(=O)[C@@H](NC(=O)[C@@H]1CCCN1C(=O)[C@H](CO)NC(=O)[C@H](CCCCN)NC(=O)[C@H](Cc1ccc(O)cc1)NC(C)=O)[C@@H](C)O)C(=O)N[C@@H](CCC(=O)O)C(=O)N[C@@H](CC(C)C)C(=O)N[C@@H](CC(C)C)C(=O)N[C@@H](Cc1c[nH]cn1)C(=O)N[C@@H](CCC(=O)O)C(=O)N[C@@H](CO)C(=O)N[C@@H](CCC(N)=O)C(=O)N[C@@H](CO)C(N)=O [RNF11_6–21 E] (Ac-YKSPTSDDIELLHESQS-NH2) |  |  |  | 1000 | 4.9 (0.009) | Kd ([6]; ITC (iTC200), 50 mM sodium phosphate pH 7.4, 1 mM DTT, average of the runs, technical duplicates): 101 µM; Ka ([6]; ITC single run: date 200220, injection 1): 10600; Ka ([6]; ITC single run: date 200220, injection 2): 9350
5 | CC(=O)N[C@@H](CC(=O)O)C(=O)N[C@H](C(=O)N[C@@H](CCC(=O)O)C(=O)N[C@@H](Cc1c[nH]cn1)C(=O)NCC(=O)NCC(=O)N[C@@H](CCCCN)C(=O)N[C@@H](CCCNC(=N)N)C(=O)N[C@@H](CCC(=O)O)C(=O)N[C@@H](CCCNC(=N)N)C(=O)N[C@@H](CC(C)C)C(=O)N[C@H](C(=O)N1CCC[C@H]1C(=O)N[C@H](C(=O)N[C@@H](CO)C(=O)N[C@@H](Cc1ccc(O)cc1)C(N)=O)C(C)C)[C@@H](C)O)C(C)C [SQSTM1_258–272 E] (Ac-DVEHGGKRERLTPVSY-NH2) | 5.3 ± 0.4 | −3 (0.0096) | 41 ± 2 |  |  | 
6 | CC(=O)NCC(=O)N[C@@H](C)C(=O)N[C@@H](CCC(=O)O)C(=O)N1CCC[C@H]1C(=O)N[C@@H](C)C(=O)N[C@@H](CC(C)C)C(=O)N[C@@H](CCCCN)C(=O)N[C@@H](CCCNC(=N)N)C(=O)N[C@@H](CO)C(=O)N[C@@H](Cc1c[nH]cn1)C(=O)N[C@@H](CO)C(=O)N[C@@H](CC(=O)O)C(=O)N[C@@H](CO)C(=O)N[C@@H](Cc1ccc(O)cc1)C(N)=O [CDC25A114–125 E] (Ac-GAEPALKRSHSDSY-NH2) | 0.75 ± 0.03 | 10 (0.000006) | 2.3 ± 0.3 |  |  | 
